Measurements: publication PMC8729770, “In Vitro Evaluation of Antimicrobial Peptides from the Black Soldier Fly (Hermetia Illucens) against a Selection of Human Pathogens” (Microbiology Spectrum, 2022)
Like-named read-outs stand apart in the source and are kept apart here. Ends that are not written are not given here.

Columns and labels:
S. aureus ATCC 6538 = format: cell-based, Staphylococcus aureus; details: determined visually, 16 h
Method: (§1) To detect antimicrobial activity of the BSF AMPs, the peptide library underwent screening against a panel of microorganisms, consisting of S. aureus ATCC 6538, E. coli ATCC 8739, P. aeruginosa ATCC 9027, C. albicans B59630, and A. fumigatus B42928. Serial dilutions of the peptides were prepared from the DMSO stock solutions in sterile demineralized water in 96-well plates using an automated liquid-handling workstation (Beckman Coulter Biomek 3000) in end volumes of 10 μL. The final in-plate concentration of DMSO was <1%. Peptide concentrations ranged from 64 μM to 0.25 μM for the first evaluation, and from 32 μM to 0.016 μM for the independent repeat. As references, doxycycline (Sigma-Aldrich; S. aureus, E. coli, P. aeruginosa), flucytosine (Sigma-Aldrich; C. albicans), and econazole (Sigma-Aldrich; A. fumigatus) were used. Suspensions of a starting inoculum of 5 × 10^3 CFU/mL (E. coli, S. aureus, C. albicans, A. fumigatus) and 5 × 10^4 CFU/mL (P. aeruginosa) were prepared in MHB (bacterial species) or RPMI medium (fungal species) and 190 μL was added to the 96-well plates. Plates were incubated for 16 h (E. coli, S. aureus, P. aeruginosa), 24 h (C. albicans), or 48 h (A. fumigatus) at 37°C. After incubation, read-out of the antimicrobial activity was performed using a resazurin assay. Then, 20 μL of a 0.01% (wt/vol) resazurin (Sigma-Aldrich) solution was added to each well and plates were incubated for 15 min (S. aureus), 30 min (E. coli), 45 min (P. aeruginosa), 4 h (C. albicans), or 17 h (A. fumigatus) to allow resazurin reduction to take place. Fluorescence was read using a microplate reader (Telix) at λexcitation = 550 nm and λemission = 590. […] MIC values were determined visually. Medium in the wells with no visual growth was plated on MHA to detect the MBC, defined as ≥3 log reduction compared with the growth control.

P. aeruginosa ATCC 9027 [1] = experiment: Outer membrane permeabilization with N-phenyl-naphthylamine; format: cell-based, Pseudomonas aeruginosa; details: compared with 16 μM polymyxin B
Method: N-phenyl-naphthylamine (NPN; Tokyo chemical industry [TCI]) was used to study the permeabilization of the OM as described by […] et al. ([81]). Briefly, P. aeruginosa ATCC 9027 was grown until the mid-log phase in MHB. Afterwards, the cells were centrifuged (3,000 × g, 15 min) and resuspended in 5 mM HEPES buffer (pH 7.4) to an OD600 of 0.5. […] Fluorescence was measured every 5 min during 1 h using a microplate reader (Promega) with λexcitation = 350 nm and λemission = 420. Data were normalized based on the fluorescent signal in the presence of 50 μL HEPES buffer, 50 μL NPN, and 100 μL bacteria. Experiments were carried out in triplicate.

E. coli ATCC 8739 [2] = details: ATCC 8739, 16 h
K. pneumoniae ATCC 13883 = details: ATCC 13883, 16 h
[3] = test system: M. tuberculosis ATCC 25177 (H37Ra); details: for IC50: read-out: IC50 M. tuberculosis ATCC 25177 (H37Ra), starting at 32 μM, 5×10^5 CFU/mL, 7 days, 37°C, resazurin; for MIC M. tuberculosis ATCC 25177 (H37Ra): visual
P. aeruginosa ATCC 9027 [4] = experiment: Cytoplasmic membrane depolarization assay, diSC3(5); format: cell-based, Pseudomonas aeruginosa; details: 32-0.25 μM
Method: To study the effects of the peptides on the membrane potential, 3,3′-dipropylthiadicarbocyanine iodide (diSC3(5); TCI) was used as described by Kwon et al. ([82]). P. aeruginosa ATCC 9027 was grown until the mid-log phase in MHB. Afterwards, the cells were centrifuged (3,000 × g, 15 min), washed and resuspended in 5 mM HEPES buffer (pH 7.4) supplemented with 20 mM glucose and 100 mM KCl to an OD600 of 0.2. […] The fluorescent signal was measured at λexcitation = 620 nm and λemission = 670 with a microplate reader (Promega) every 5 min during 1 h. Furthermore, 0.1% Triton-X was used as a positive control. Data were normalized based on the fluorescent signal in the presence of 50 μL supplemented HEPES buffer and 150 μL diSC3(5)-bacterial suspension. The assay was carried out in triplicate.

P. aeruginosa ATCC 9027 [5] = format: cell-based, Pseudomonas aeruginosa; details: for MBC P. aeruginosa ATCC 9027: plated on MHA, ≥3 log reduction vs growth control
Method: as §1

[6] = test system: preformed P. aeruginosa ATCC 15442 biofilm; experiment: Biofilm eradication (postexposure); format: cell-based, Pseudomonas aeruginosa; details: 128-0.5 μM, 16 h; resazurin
Method: After 16 h of incubation at 37°C and shaking at 110 rpm (New Brunswick Innova 4300), a resazurin assay was used as described by Gilbert-Girard et al. to determine the viability of the bacterial cells in the biofilm ([79]). After incubation, the growth medium was removed from the well plates and the bacterial biofilms were washed once with PBS to remove remaining planktonic cells. […] The fluorescence of the wells was measured at λexcitation = 550 nm and λemission = 590 using a microplate reader (Promega). Afterwards, a crystal violet staining was applied to determine the biomass of the biofilms ([79]). The resazurin solution was removed from the well plates and 200 μL of 100% ethanol (VWR Chemicals) was added to fix the biofilms. After 15 min of incubation, the ethanol was discarded from the wells and the plates were left to air dry for 30 min. […] The staining solution was removed after 5 min and the biofilms were washed with PBS. After air-drying for 10 min, the crystal violet stain was solubilized in 200 μL of 100% ethanol. […] The experiment was carried out three times. Polymyxin B sulfate (Sigma-Aldrich) was included as a reference. […] The next day, bacterial viability and biomass were determined with a resazurin assay and crystal violet assay as described earlier. […]

E. coli ATCC 8739 [7] = format: cell-based, Escherichia coli; details: for MBC E. coli ATCC 8739: plated on MHA, ≥3 log reduction vs growth control
Summary of the method: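 Peptides were serially diluted (64–0.25 μM, repeat 32–0.016 μM) against 5 × 10^3 CFU/mL inocula in MHB (bacteria) or RPMI (fungi) at 37°C for 16 h (bacteria), 24 h (C. albicans) or 48 h (A. fumigatus). MIC was read visually with resazurin readout; MBC was defined as ≥3 log reduction on MHA.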

RWYKKIFKPVEKAVQRVRDGTLQALGVAQQAANVYATAQGAQQQRHA-NH2 [Hill-Cec10]
MIC S. aureus ATCC 6538 (S. aureus ATCC 6538; repeat 1, 64-0.25 μM): > 64.00 µM
MIC S. aureus ATCC 6538 (S. aureus ATCC 6538; repeat 2, 32-0.016 μM): > 32.00 µM
maximum NPN uptake (P. aeruginosa ATCC 9027 [1]; at 32 μM): 75%
concentration to achieve at least 50% NPN uptake (P. aeruginosa ATCC 9027 [1]): 4 µM
MIC E. coli ATCC 8739 (E. coli ATCC 8739 [2]): 1 µM
MIC K. pneumoniae (K. pneumoniae ATCC 13883): 0.5 to 1 µM
IC50 ([3]; repeat 1): > 32 µM
IC50 ([3]; repeat 2): > 32 µM
MIC M. tuberculosis ATCC 25177 (H37Ra) ([3]; repeat 1): >32 µM
MIC M. tuberculosis ATCC 25177 (H37Ra) ([3]; repeat 2): >32 µM
cytoplasmic membrane depolarization (diSC3(5) fluorescence) (P. aeruginosa ATCC 9027 [4]): cause cytoplasmic membrane depolarization
MBC P. aeruginosa ATCC 9027 (P. aeruginosa ATCC 9027 [5]; repeat 1): 16.00 µM
MIC P. aeruginosa ATCC 9027 (P. aeruginosa ATCC 9027 [5]; repeat 2, 32-0.016 μM, determined visually, 16 h): 2.00 µM
MBC P. aeruginosa ATCC 9027 (P. aeruginosa ATCC 9027 [5]; repeat 2): 2.00 µM
effect on viability of preformed biofilm compared with the untreated control [6]: No significant effect
MIC E. coli ATCC 8739 (E. coli ATCC 8739 [7]; ATCC 8739, 16 h): 0.50 µM
MIC E. coli ATCC 8739 (E. coli ATCC 8739 [7]; repeat 1, 64-0.25 μM, determined visually, 16 h): 0.25 µM
MBC E. coli ATCC 8739 (E. coli ATCC 8739 [7]; repeat 1): 0.25 µM
MBC E. coli ATCC 8739 (E. coli ATCC 8739 [7]; repeat 2): 32.00 µM
